Active and inactive are the calls of the source.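 Rule for the calls: active = a drop in nitrite signal whose fitted half-maximal concentration is at most ten times the top tested dose; inconclusive = flat fit with 30 to 70% inhibition, or poor curve fit; inactive = the rest.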
Tests used:
[1] = inhibitors of cytokine-induced nitrite release, dose response, cell-based, Griess absorbance, INS-1E, dry powder, set 3 (AID 488870); conditions: INS-1E cytokine-induced nitrite, Griess absorbance, 48 h; at 19.5 µM (top of the series)
[2] = test system: INS-1E cytokine-induced nitrite, Griess absorbance, 48 h; test: as above

Row | Structure (SMILES) | activity change, negative = inhibition [1] | AC50 [2]
1 | COc1ccc(NC(=O)Nc2cccc3c2O[C@@H](CN(C)S(=O)(=O)c2ccc(OC)cc2)[C@H](C)CN([C@@H](C)CO)C3=O)cc1 | -3.9% (inactive) | 
2 | COc1ccc(S(=O)(=O)N(C)C[C@@H]2Oc3c(NC(=O)NC(C)C)cccc3C(=O)N([C@@H](C)CO)C[C@H]2C)cc1 | 7.35% (inactive) | 
3 | COc1ccc(S(=O)(=O)N(C)C[C@@H]2Oc3c(NC(=O)Nc4ccccc4)cccc3C(=O)N([C@@H](C)CO)C[C@H]2C)cc1 | -7.93% (inactive) | 
4 | COc1ccc(S(=O)(=O)N(C)C[C@@H]2Oc3c(NC(=O)c4cccc5ccccc45)cccc3C(=O)N([C@@H](C)CO)C[C@H]2C)cc1 | -13.8% (inactive) | 
5 | C[C@@H]1CN([C@@H](C)CO)C(=O)c2cccc(NC(=O)Nc3cccc4ccccc34)c2O[C@H]1CN(C)S(=O)(=O)c1ccc2c(n1)N(C)CCO2 | -13.9% (inactive) | 
6 | COc1ccc(S(=O)(=O)N(C)C[C@H]2Oc3c(NC(=O)Nc4cccc5ccccc45)cccc3C(=O)N([C@H](C)CO)C[C@H]2C)cc1 | -1.83% (inactive) | 
7 | Cc1ccc(S(=O)(=O)N(C)C[C@@H]2Oc3c(NC(=O)Nc4ccc(F)cc4)cccc3C(=O)N([C@@H](C)CO)C[C@H]2C)cc1 | -6.25% (inactive) | 
8 | COc1ccc(S(=O)(=O)N(C)C[C@@H]2Oc3c(cccc3N(C)C)C(=O)N([C@@H](C)CO)C[C@H]2C)cc1 | 4.92% (inactive) | 
9 | C[C@@H]1CN([C@H](C)CO)C(=O)c2cccc(NC(=O)Nc3ccccc3)c2O[C@H]1CN(C)S(=O)(=O)c1ccc(F)cc1 |  | > 19.5 µM (inactive)
10 | C[C@@H]1CN([C@@H](C)CO)C(=O)c2cccc(NC(=O)Nc3ccc(F)cc3)c2O[C@H]1CN(C)S(=O)(=O)c1ccc(Cl)cc1 | -9.62% (inactive) | 
11 | C[C@@H]1CN([C@@H](C)CO)C(=O)c2cccc(NC(=O)Nc3ccccc3)c2O[C@H]1CN(C)S(=O)(=O)c1ccc(F)cc1 | -6.44% (inactive) | 
12 | C[C@@H]1CN([C@@H](C)CO)C(=O)c2cccc(NC(=O)Nc3cccc4ccccc34)c2O[C@H]1CN(C)S(=O)(=O)c1ccc2c(c1)oc(=O)n2C | -7.4% (inactive) | 
13 | COc1ccc(S(=O)(=O)N(C)C[C@@H]2Oc3c(NC(=O)c4ccc(-c5nccs5)cc4)cccc3C(=O)N([C@@H](C)CO)C[C@H]2C)cc1 | -2.29% (inactive) | 
14 | Cc1noc(C)c1NC(=O)N(C)C[C@@H]1Oc2c(NC(=O)Nc3cccc4ccccc34)cccc2C(=O)N([C@@H](C)CO)C[C@H]1C | -7.11% (inactive) | 
15 | Cc1ccc(S(=O)(=O)N(C)C[C@@H]2Oc3c(NC(=O)Nc4ccccc4)cccc3C(=O)N([C@@H](C)CO)C[C@H]2C)cc1 | -10.1% (inactive) | 
16 | CNC[C@@H]1Oc2c(NC(=O)Nc3cccc4ccccc34)cccc2C(=O)N([C@@H](C)CO)C[C@H]1C | 3.1% (inactive) | 
17 | C[C@@H]1CN([C@H](C)CO)C(=O)c2cccc(NC(=O)Nc3ccc(F)cc3)c2O[C@H]1CN(C)S(=O)(=O)c1ccc(Cl)cc1 | -5.33% (inactive) | 
18 | COc1ccc(S(=O)(=O)N(C)C[C@@H]2Oc3c(NC(=O)C4CC4)cccc3C(=O)N([C@@H](C)CO)C[C@H]2C)cc1 | -4.99% (inactive) | 

Row | Structure (SMILES) | activity change, negative = inhibition [1] | AC50 [2]
19 | COc1ccc(S(=O)(=O)N(C)C[C@@H]2Oc3c(NS(=O)(=O)c4ccc(Cl)cc4)cccc3C(=O)N([C@@H](C)CO)C[C@H]2C)cc1 | -7.18% (inactive) | 
20 | COc1ccc(S(=O)(=O)N(C)C[C@@H]2Oc3c(NC(=O)Nc4cccc5ccccc45)cccc3C(=O)N([C@@H](C)CO)C[C@@H]2C)cc1 | -1.85% (inactive) | 
21 | COc1ccc(S(=O)(=O)N(C)C[C@@H]2Oc3c(NC(=O)c4ccncc4)cccc3C(=O)N([C@@H](C)CO)C[C@H]2C)cc1 | -12.3% (inactive) | 
22 | COc1ccc(S(=O)(=O)N(C)C[C@@H]2Oc3c(NC(=O)C4CCCCC4)cccc3C(=O)N([C@@H](C)CO)C[C@H]2C)cc1 | -0.334% (inactive) | 
23 | COc1ccc(S(=O)(=O)N(C)C[C@@H]2Oc3c(NC(=O)C4CCOCC4)cccc3C(=O)N([C@@H](C)CO)C[C@H]2C)cc1 | 5.9% (inactive) | 
24 | COc1ccc(S(=O)(=O)N(C)C[C@@H]2Oc3c(NS(=O)(=O)c4cn(C)cn4)cccc3C(=O)N([C@@H](C)CO)C[C@H]2C)cc1 | 4.99% (inactive) | 
25 | Cc1ccc(S(=O)(=O)N(C)C[C@H]2Oc3c(NC(=O)Nc4cccc5ccccc45)cccc3C(=O)N([C@@H](C)CO)C[C@@H]2C)cc1 |  | > 19.5 µM (inactive)
26 | COc1ccc(S(=O)(=O)N(C)C[C@@H]2Oc3c(NC(=O)Nc4cccc5ccccc45)cccc3C(=O)N(C(C)C)C[C@H]2C)cc1 | -11.1% (inactive) | 
27 | COc1ccc(S(=O)(=O)N(C)C[C@@H]2Oc3c(NC(=O)Nc4c(C)noc4C)cccc3C(=O)N([C@@H](C)CO)C[C@H]2C)cc1 | -4.75% (inactive) | 
28 | C[C@@H]1CN([C@@H](C)CO)C(=O)c2cccc(NC(=O)Nc3cccc4ccccc34)c2O[C@H]1CN(C)S(=O)(=O)c1cccs1 | -14.1% (inactive) | 
29 | COc1ccc(S(=O)(=O)N(C)C[C@@H]2Oc3ccc(NC(=O)Nc4cccc5ccccc45)cc3C(=O)N([C@@H](C)CO)C[C@H]2C)cc1 | -15.4% (inactive) | 
30 | C[C@@H]1CN([C@@H](C)CO)C(=O)c2cccc(NC(=O)Nc3cccc4ccccc34)c2O[C@H]1CN(C)CC1CC1 | -0.187% (inactive) | 
31 | C[C@@H]1CN([C@@H](C)CO)C(=O)c2cccc(NC(=O)Nc3ccc(F)cc3)c2O[C@H]1CN(C)S(=O)(=O)c1ccc(F)cc1 | -6.48% (inactive) | 
32 | COc1ccc(S(=O)(=O)N(C)C[C@@H]2Oc3c(NC(=O)Nc4ccc(F)cc4)cccc3C(=O)N([C@H](C)CO)C[C@H]2C)cc1 | 20.3% (inactive) | 
33 | COc1ccc(S(=O)(=O)N(C)C[C@@H]2Oc3c(NC(=O)Nc4ccc5c(c4)OCO5)cccc3C(=O)N([C@@H](C)CO)C[C@H]2C)cc1 | -8.76% (inactive) | 
34 | C[C@@H]1CN([C@@H](C)CO)C(=O)c2cccc(NC(=O)Nc3cccc4ccccc34)c2O[C@H]1CN(C)S(C)(=O)=O | 9.52% (inactive) | 
35 | Cc1ccc(S(=O)(=O)N(C)C[C@@H]2Oc3c(NC(=O)Nc4cccc5ccccc45)cccc3C(=O)N([C@H](C)CO)C[C@H]2C)cc1 | -10.1% (inactive) | 
36 | C[C@@H]1CN([C@H](C)CO)C(=O)c2cccc(NC(=O)Nc3ccccc3)c2O[C@H]1CN(C)S(=O)(=O)c1ccc(Cl)cc1 | 4.79% (inactive) | 
